The experiment deals with MYT1 protein (Homo sapiens (Human), UniProt Q99640). Kind of experiment: Test for binding to ATP binding site of MYT1 (Kinase Tracer 178 / Eu-Anti-GST antibody TR-FRET). Particulars: ATP binding site of MYT1, 30 minutes at room temperature. As for the experimental part:
The binding capacity of each compound to the ATP binding site of MYT1 Kinase protein was evaluated. 5× Kinase Buffer A (manufactured by Thermo Fisher Scientific Inc., PV3189) was diluted to 5 times with Milli-Q water, thereby preparing 1× Kinase Buffer. Using 1× Kinase Buffer, MYT1 protein (manufactured by Carna Biosciences, Inc.) was diluted to a concentration of 0.005 μM and Eu-Anti-GST Antibody was diluted to a concentration of 1 μM. […] To a 96 well-plate, 2.5 μL of a compound diluted with DMSO was added. […] The mixture was well mixed and then allowed to stand at room temperature for 30 minutes. Thereafter, fluorescence wavelengths of 665 nm and 615 nm generated by irradiation with excitation light of 340 nm were detected using Envision (manufactured by PerkinElmer). The proportion of Tracer bound to MYT1 protein was calculated for every condition by dividing the intensity at the fluorescence wavelength of 665 nm by the intensity at the fluorescence wavelength of 615 nm.
On the technique in general: Time-resolved FRET reads energy transfer from a long-lived donor to a nearby acceptor.

The source of these data is patent US20260062412A1, “NITROGEN-CONTAINING HETEROCYCLIC COMPOUND HAVING MYT1 INHIBITORY ACTIVITY” (CHUGAI SEIYAKU KABUSHIKI KAISHA, priority 2023, published 2026).

MYT1 protein, sequence (Q99640 whole entry): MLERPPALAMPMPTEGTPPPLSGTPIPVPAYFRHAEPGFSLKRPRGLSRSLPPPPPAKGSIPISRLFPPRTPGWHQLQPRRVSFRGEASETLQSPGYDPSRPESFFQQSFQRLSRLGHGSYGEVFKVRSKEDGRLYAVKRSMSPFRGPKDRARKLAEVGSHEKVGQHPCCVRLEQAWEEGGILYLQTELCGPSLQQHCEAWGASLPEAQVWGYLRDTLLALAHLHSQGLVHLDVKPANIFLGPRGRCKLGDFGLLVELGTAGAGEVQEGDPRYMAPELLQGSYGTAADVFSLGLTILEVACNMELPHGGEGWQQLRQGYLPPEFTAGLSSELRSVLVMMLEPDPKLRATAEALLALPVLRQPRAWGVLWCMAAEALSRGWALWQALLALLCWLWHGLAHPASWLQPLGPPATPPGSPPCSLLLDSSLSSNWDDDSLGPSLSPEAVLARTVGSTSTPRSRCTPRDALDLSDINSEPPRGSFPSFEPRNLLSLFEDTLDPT

A word on the IC50: it is the concentration that gives 50% inhibition. A low value points to greater potency. For `Nc1c(-c2ccc(F)c3[nH]ncc23)c2cc(Br)c3c(Cl)cccc3c2[nH]c1=O` [Compound B16, 3-Amino-6-bromo-7-chloro-4-(7-fluoro-1H-indazol-4-yl)-1H-benzo[h]quinolin-2-one], the IC50 stood at 46 nM. In turn, `Nc1c(-c2ccc(F)c3[nH]ncc23)c2cc(C3CC3)c3c(Cl)cccc3c2[nH]c1=O` [Compound B17, 3-Amino-7-chloro-6-cyclopropyl-4-(7-fluoro-1H-indazol-4-yl)-1H-benzo[h]quinolin-2-one] came in with an IC50 of 15 nM. `Nc1c(-c2ccc(F)c3[nH]ncc23)c2ccc3c(Cl)cccc3c2[nH]c1=O` [Compound B18, 3-Amino-7-chloro-4-(7-fluoro-1H-indazol-4-yl)-1H-benzo[h]quinolin-2-one] displayed an IC50 of 23 nM.

In turn, `Cc1cc2c(-c3ccc(F)c4[nH]ncc34)c(N)c(=O)[nH]c2c2cccc(Cl)c12` [Compound B19, 3-Amino-7-chloro-4-(7-fluoro-1H-indazol-4-yl)-6-methyl-1H-benzo[h]quinolin-2-one] gave an IC50 of 22 nM.

Molecule `Nc1c(-c2ccc(F)c3[nH]ncc23)c2cc(C3CC3)c3cccc(Cl)c3c2[nH]c1=O` [Compound B20, 3-Amino-10-chloro-6-cyclopropyl-4-(7-fluoro-1H-indazol-4-yl)-1H-benzo[h]quinolin-2-one] yielded an IC50 of 42 nM. In the case of `Nc1c(-c2ccc(F)c3[nH]ncc23)c2cc(Br)c3ccccc3c2[nH]c1=O` [Compound B21, 3-Amino-6-bromo-4-(7-fluoro-1H-indazol-4-yl)-1H-benzo[h]quinolin-2-one] it was 20 nM. `Nc1c(-c2ccc(F)c3[nH]ncc23)c2cc(C3CCCC3)c3ccccc3c2[nH]c1=O` [Compound B25, 3-Amino-6-cyclopentyl-4-(7-fluoro-1H-indazol-4-yl)-1H-benzo[h]quinolin-2-one] had an IC50 of 24 nM.

For `CC#Cc1cc2c(-c3ccc(F)c4[nH]ncc34)c(N)c(=O)[nH]c2c2ccccc12` [Compound B28, 3-Amino-4-(7-fluoro-1H-indazol-4-yl)-6-prop-1-inyl-1H-benzo[h]quinolin-2-one], the IC50 amounted to 22 nM. As for `Cn1cc(-c2cc3c(-c4ccc(F)c5[nH]ncc45)c(N)c(=O)[nH]c3c3ccccc23)cn1` [Compound B29, 3-Amino-4-(7-fluoro-1H-indazol-4-yl)-6-(1-methylpyrazole-4-yl)-1H-benzo[h]quinolin-2-one], the IC50 amounted to 9.2 nM. Take `C=Cc1cc2c(-c3ccc(F)c4[nH]ncc34)c(N)c(=O)[nH]c2c2ccccc12` [Compound B30, 3-Amino-6-ethenyl-4-(7-fluoro-1H-indazol-4-yl)-1H-benzo[h]quinolin-2-one]: the IC50 came to 15 nM. In the case of `Cn1c(=O)c(N)c(-c2ccc(F)c3[nH]ncc23)c2cc(Br)c3ccccc3c21` [Compound B33, 3-Amino-6-bromo-4-(7-fluoro-1H-indazol-4-yl)-1-methylbenzo[h]quinolin-2-one] it was 2600 nM; in that of `Nc1c(-c2ccc(Cl)c3[nH]ncc23)c2cc(Br)c3ccccc3c2[nH]c1=O` [Compound B36, 3-Amino-6-bromo-4-(7-chloro-1H-indazol-4-yl)-1H-benzo[h]quinolin-2-one], 14 nM. `CCc1cc2c(-c3ccc(Cl)c4[nH]ncc34)c(N)c(=O)[nH]c2c2ccccc12` [Compound B38, 3-Amino-4-(7-chloro-1H-indazol-4-yl)-6-ethyl-1H-benzo[h]quinolin-2-one] yielded an IC50 of 4.6 nM. The molecule `Nc1c(-c2ccc(Cl)c3[nH]ncc23)c2cc(C3CCC3)c3ccccc3c2[nH]c1=O` [Compound B39, 3-Amino-4-(7-chloro-1H-indazol-4-yl)-6-cyclobutyl-1H-benzo[h]quinolin-2-one] returned an IC50 of 10 nM. In the case of `Nc1c(-c2ccc(Cl)c3[nH]ncc23)c2cc(C3CCCC3)c3ccccc3c2[nH]c1=O` [Compound B40, 3-Amino-4-(7-chloro-1H-indazol-4-yl)-6-cyclopentyl-1H-benzo[h]quinolin-2-one] it was 13 nM; in that of `N#Cc1cc2c(-c3ccc(Cl)c4[nH]ncc34)c(N)c(=O)[nH]c2c2ccccc12` [Compound B41, 3-Amino-4-(7-chloro-1H-indazol-4-yl)-2-oxo-1H-benzo[h]quinoline-6-carbonitrile], 14 nM; in that of `N#Cc1cc2c(-c3ccc(C#N)c4[nH]ncc34)c(N)c(=O)[nH]c2c2ccccc12` [Compound B42, 3-Amino-4-(7-cyano-1H-indazol-4-yl)-2-oxo-1H-benzo[h]quinoline-6-carbonitrile], 250 nM.

`Cc1cc2c(-c3ccc(Cl)c4[nH]ncc34)c(N)c(=O)[nH]c2c2ccccc12` [Compound B43, 3-Amino-4-(7-chloro-1H-indazol-4-yl)-6-methyl-1H-benzo[h]quinolin-2-one] registered an IC50 of 15 nM. For `Nc1c(-c2ccc(Cl)c3[nH]ncc23)c2ccc3ccccc3c2[nH]c1=O` [Compound B44, 3-Amino-4-(7-chloro-1H-indazol-4-yl)-1H-benzo[h]quinolin-2-one], the concentration for half-maximal inhibition (IC50) is 14 nM. `Nc1c(-c2ccc(Cl)c3[nH]ncc23)c2cc(Cl)c3ccccc3c2[nH]c1=O` [Compound B45, 3-Amino-6-chloro-4-(7-chloro-1H-indazol-4-yl)-1H-benzo[h]quinolin-2-one] returned an IC50 of 33 nM. Regarding `Cn1ncc2c(-c3c(N)c(=O)[nH]c4c3cc(Br)c3ncccc34)ccc(F)c21` [Compound C2, 3-Amino-6-bromo-4-(7-fluoro-1-methylindazol-4-yl)-1H-1,7-phenanthrolin-2-one], the IC50 turned out to be 1100 nM. As for `Nc1c(-c2ccc(F)c3[nH]ncc23)c2cc(O)c3ncccc3c2[nH]c1=O` [Compound C3, 3-Amino-4-(7-fluoro-1H-indazol-4-yl)-6-hydroxy-1H-1,7-phenanthrolin-2-one], the IC50 came to 3.6 nM. Regarding `Nc1c(-c2ccc(F)c3[nH]ncc23)c2cc(O[C@@H]3CCOC3)c3ncccc3c2[nH]c1=O` [Compound C5, 3-Amino-4-(7-fluoro-1H-indazol-4-yl)-6-[(3R)-oxolan-3-yl]oxy-1H-1,7-phenanthrolin-2-one], the IC50 was 1.4 nM. For the molecule `Nc1c(-c2ccc(F)c3[nH]ncc23)c2cc(OC3CCCC3)c3ncccc3c2[nH]c1=O` [Compound C6, 3-Amino-6-cyclopentyloxy-4-(7-fluoro-1H-indazol-4-yl)-1H-1,7-phenanthrolin-2-one], the IC50 was found to be 1 nM. The result for `Nc1c(-c2ccc(F)c3[nH]ncc23)c2cc(OC3CCOCC3)c3ncccc3c2[nH]c1=O` [Compound C7, 3-Amino-4-(7-fluoro-1H-indazol-4-yl)-6-(oxan-4-yloxy)-1H-1,7-phenanthrolin-2-one] reads 1.2 nM. Consider `Nc1c(-c2ccc(F)c3[nH]ncc23)c2cc(OCC3CCC3)c3ncccc3c2[nH]c1=O` [Compound C9, 3-Amino-6-(cyclobutylmethoxy)-4-(7-fluoro-1H-indazol-4-yl)-1H-1,7-phenanthrolin-2-one], for which the IC50 worked out at 3.2 nM. In turn, `CC(C)CCOc1cc2c(-c3ccc(F)c4[nH]ncc34)c(N)c(=O)[nH]c2c2cccnc12` [Compound C10, 3-Amino-4-(7-fluoro-1H-indazol-4-yl)-6-(3-methylbutoxy)-1H-1,7-phenanthrolin-2-one] came in with an IC50 of 2.3 nM. As to `Nc1c(-c2ccc(F)c3[nH]ncc23)c2cc(OCC3CC3)c3ncccc3c2[nH]c1=O` [Compound C11, 3-Amino-6-(cyclopropylmethoxy)-4-(7-fluoro-1H-indazol-4-yl)-1H-1,7-phenanthrolin-2-one], the IC50 is 1.4 nM. The molecule `Nc1c(-c2ccc(F)c3[nH]ncc23)c2cc(O[C@H]3CCOC3)c3ncccc3c2[nH]c1=O` [Compound C12, 3-Amino-4-(7-fluoro-1H-indazol-4-yl)-6-[(3S)-oxolan-3-yl]oxy-1H-1,7-phenanthrolin-2-one] registered an IC50 of 2.2 nM. Turning to `COCCOc1cc2c(-c3ccc(F)c4[nH]ncc34)c(N)c(=O)[nH]c2c2cccnc12` [Compound C14, 3-Amino-4-(7-fluoro-1H-indazol-4-yl)-6-(2-methoxyethoxy)-1H-1,7-phenanthrolin-2-one], the IC50 was determined as 2.5 nM. For the molecule `Nc1c(-c2ccc(F)c3[nH]ncc23)c2cc(OCC(F)(F)F)c3ncccc3c2[nH]c1=O` [Compound C15, 3-Amino-4-(7-fluoro-1H-indazol-4-yl)-6-(2,2,2-trifluoroethoxy)-1H-1,7-phenanthrolin-2-one], the IC50 turned out to be 2.6 nM.

Consider `Nc1c(-c2ccc(F)c3[nH]ncc23)c2cc(OCC(F)F)c3ncccc3c2[nH]c1=O` [Compound C16, 3-Amino-6-(2,2-difluoroethoxy)-4-(7-fluoro-1H-indazol-4-yl)-1H-1,7-phenanthrolin-2-one], for which the IC50 turned out to be 1.1 nM. For `Nc1c(-c2ccc(F)c3[nH]ncc23)c2cc(OC3CCCCC3)c3ncccc3c2[nH]c1=O` [Compound C17, 3-Amino-6-cyclohexyloxy-4-(7-fluoro-1H-indazol-4-yl)-1H-1,7-phenanthrolin-2-one], the IC50 was found to be 4.5 nM. Molecule `Nc1c(-c2ccc(F)c3[nH]ncc23)c2cc(OC3CCC3)c3ncccc3c2[nH]c1=O` [Compound C18, 3-Amino-6-cyclobutyloxy-4-(7-fluoro-1H-indazol-4-yl)-1H-1,7-phenanthrolin-2-one] had a half-inhibitory concentration (IC50) of 2 nM. As for `Nc1c(-c2ccc(F)c3[nH]ncc23)c2cc(OCCCF)c3ncccc3c2[nH]c1=O` [Compound C19, 3-Amino-4-(7-fluoro-1H-indazol-4-yl)-6-(3-fluoropropoxy)-1H-1,7-phenanthrolin-2-one], the half-inhibitory concentration (IC50) was 2.2 nM.
